Experimental data reported in patent US10364267B2, “Deuterated bile acid derivatives as FXR/TGR5 agonists and methods of use thereof” (ENANTA PHARMACEUTICALS, INC., priority 2016, dated 2019).
pEC50: −log10 of the molar value.

Target: T1, human FXR (NR1H4) (Homo sapiens, UniProt Q96RI1)
T1 construct: host or cells: CHO (Chinese hamster ovary) reporter cells
T1 sequence (Q96RI1 1-486): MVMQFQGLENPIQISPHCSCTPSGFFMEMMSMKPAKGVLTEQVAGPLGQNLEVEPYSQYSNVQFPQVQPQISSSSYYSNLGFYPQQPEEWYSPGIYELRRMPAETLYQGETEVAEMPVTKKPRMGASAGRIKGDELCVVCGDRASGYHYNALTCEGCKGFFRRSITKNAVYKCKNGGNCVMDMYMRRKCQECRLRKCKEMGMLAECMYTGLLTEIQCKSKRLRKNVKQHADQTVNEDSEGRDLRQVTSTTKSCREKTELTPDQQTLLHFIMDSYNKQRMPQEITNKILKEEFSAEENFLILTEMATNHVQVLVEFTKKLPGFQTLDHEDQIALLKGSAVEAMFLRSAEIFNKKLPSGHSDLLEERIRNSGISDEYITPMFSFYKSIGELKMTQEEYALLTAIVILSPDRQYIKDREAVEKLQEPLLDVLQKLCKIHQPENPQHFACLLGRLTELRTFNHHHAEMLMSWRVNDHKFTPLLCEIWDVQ
Assay: Human FXR (NR1H4) Assay (luciferase reporter, Indigo Bioscience kit)
Type: cell-based
Settings: for Efficacy (%): efficacy normalized to CDCA set as 100%, CHO reporter cells expressing human NR1H4
Excerpt: Human FXR (NR1H4) Assay Determination of a ligand mediated Gal4 promoter driven transactivation to quantify ligand binding mediated activation of FXR. FXR Reporter Assay kit purchased from Indigo Bioscience (Catalogue number: IB00601) to determine the potency and efficacy of compound developed by Enanta that can induce FXR activation. The principle application of this reporter assay system is to quantify functional activity of human FXR. The assay utilizes non-human mammalian cells, CHO (Chinese hamster ovary) cells engineered to express human NR1H4 protein (referred to as FXR). Reporter cells also incorporate the cDNA encoding beetle luciferase which catalyzes the substrates and yields photon emission. Luminescence intensity of the reaction is quantified using a plate-reading luminometer, Envision. Reporter Cells include the luciferase reporter gene functionally linked to an FXR responsive promoter. Thus, quantifying changes in luciferase expression in the treated reporter cells provides a sensitive surrogate measure of the changes in FXR activity. […] The assay is according to the manufacturer's instructions. In brief, the assay was performed in white, 96 well plates using final volume of 100 ul containing cells with different doses of compounds. Retrieve Reporter Cells from −80° C. storage. Perform a rapid thaw of the frozen cells by transferring a 10 ml volume of 37° C. cell recovery medium into the tube of frozen cells. Recap the tube of Reporter Cells and immediately place it in a 37° C. water bath for 5-10 minutes. Retrieve the tube of Reporter Cell Suspension from the water bath. Sanitize the outside surface of the tube with a 70% alcohol swab, and then transfer it into the cell culture hood. Dispense 90 μl of cell suspension into each well of the 96-well Assay Plate. Transfer the plate into 37° C. incubator, allowing the cells adherent to the bottom of the well. Dilute compounds in Dilution Plate (DP), and administrate to cells at Assay Plate (AP). DMSO content of the samples was kept at 0.2%. Cells were incubated for additional 22 hours before luciferase activities were measured. Thirty minutes before intending to quantify FXR activity, remove Detection Substrate and Detection Buffer from the refrigerator and place them in a low-light area so that they may equilibrate to room temperature. Remove the plate's lid and discard all media contents by ejecting it into an appropriate waste container. Gently tap the inverted plate onto a clean absorbent paper towel to remove residual droplets. Cells will remain tightly adhered to well bottoms. Add 100 μl of luciferase detection reagent to each well of the assay plate. […] Set the instrument (Envision) to perform a single 5 second “plate shake” prior to reading the first assay well. Read time may be 0.5 second (500 mSec) per well.

With `[2H]C([C@@H]1[C@@H]2C[C@H](O)CC[C@]2(C)C2CC[C@@]3(C)C(CC[C@@H]3[C@H](C)CCNC(=O)NS(=O)(=O)c3ccc(C(C)(C)C)cc3)C2[C@]1([2H])O)C([2H])([2H])[2H]` (stereo partly shown) [Example 4] the pEC50 was greater than 7.00 and the “Efficacy (%)” value was 197%.
For `[2H]C([C@@H]1[C@@H]2C[C@H](O)CC[C@]2(C)C2CC[C@@]3(C)C(CC[C@@H]3[C@H](C)CCNC(=O)NS(=O)(=O)N(C)C)C2[C@]1([2H])O)C([2H])([2H])[2H]` (stereo partly shown) [Example 5], the pEC50 was 6.00 to 7.00 and the “Efficacy (%)” value was 352. %.
